test system: GST-Bcl-2; experiment: TR-FRET binding assay, Bcl-2; conditions: TR-FRET Ki values
Protocol: Tb-anti-GST antibody was purchased from Invitrogen (Catalog No. PV4216).
Representative compounds were serially diluted in dimethyl sulfoxide (DMSO) starting at 50 μM (2× starting concentration; 10% DMSO) and 10 μL were transferred into a 384-well plate.
The samples were then mixed on a shaker for 1 minute and incubated for an additional 3 hours at room temperature. For each assay, the probe/antibody and protein/probe/antibody were included on each assay plate as negative and positive controls, respectively. Fluorescence was measured on the Envision (Perkin Elmer) using a 340/35 nm excitation filter and 520/525 (F-Bak peptide) and 495/510 nm (Tb-labeled anti-Histidine antibody) emission filters.
The inhibition constant (Ki) is the dissociation constant of an enzyme-inhibitor complex or a protein/small molecule complex, wherein the small molecule is inhibiting binding of one protein to another protein or peptide. […] Inhibition constants were determined using Wang's equation (Wang Z-X., An Exact Mathematical Expression For Describing Competitive Binding Of Two Different Ligands To A Protein Molecule. FEBS Lett. 1995, 360:111-4).

| SMILES | Binding selectivity ratio (Bcl-XL Ki/Bcl-2 Ki) |
| --- | --- |
| CN(C)C1CCC(Nc2ccc(S(=O)(=O)NC(=O)c3ccc(N4CCN(CC5=C(c6ccc(Cl)cc6)CC(C)(C)CC5)CC4)cc3Oc3cccc4[nH]ccc34)cc2[N+](=O)[O-])CC1 (stereo not drawn) [EXAMPLE 202, 4-(4-{[2-(4-chlorophenyl)-4,4-dimethylcyclohex-1-en-1-yl]methyl}piperazin-1-yl)-N-[(4-{[4-(dimethylamino)cyclohexyl]amino}-3-nitrophenyl)sulfonyl]-2-(1H-indol-4-yloxy)benzamide] | 97.1 |
| CCN(CC)C1CCC(Nc2ccc(S(=O)(=O)NC(=O)c3ccc(N4CCN(CC5=C(c6ccc(Cl)cc6)CC(C)(C)CC5)CC4)cc3Oc3cccc4[nH]ccc34)cc2[N+](=O)[O-])CC1 (stereo not drawn) [EXAMPLE 203, 4-(4-{[2-(4-chlorophenyl)-4,4-dimethylcyclohex-1-en-1-yl]methyl}piperazin-1-yl)-N-[(4-{[4-(diethylamino)cyclohexyl]amino}-3-nitrophenyl)sulfonyl]-2-(1H-indol-4-yloxy)benzamide] | 139.5 |
| CC1(C)CCC(CN2CCN(c3ccc(C(=O)NS(=O)(=O)c4ccc(N[C@H]5CC[C@H](N6CCOCC6)CC5)c([N+](=O)[O-])c4)c(Oc4cccc5[nH]ccc45)c3)CC2)=C(c2ccc(Cl)cc2)C1 [EXAMPLE 204, Trans-4-(4-{[2-(4-chlorophenyl)-4,4-dimethylcyclohex-1-en-1-yl]methyl}piperazin-1-yl)-2-(1H-indol-4-yloxy)-N-({4-[(4-morpholin-4-ylcyclohexyl)amino]-3-nitrophenyl}sulfonyl)benzamide] | 291.3 |
| CN(C)CCOc1cccc(-c2ccc(Cl)cc2)c1CN1CCN(c2ccc(C(=O)NS(=O)(=O)c3ccc(NC4CCN(C)CC4)c([N+](=O)[O-])c3)c(Oc3cccc4[nH]ccc34)c2)CC1 [EXAMPLE 205, 4-[4-({4′-chloro-3-[2-(dimethylamino)ethoxy]-1,1′-biphenyl-2-yl}methyl)piperazin-1-yl]-2-(1H-indol-4-yloxy)-N-({4-[(1-methylpiperidin-4-yl)amino]-3-nitrophenyl}sulfonyl)benzamide] | 658.6 |
| CC(c1ccccc1-c1ccc(Cl)cc1)N1CCN(c2ccc(C(=O)NS(=O)(=O)c3ccc(NC4CCN(C)CC4)c([N+](=O)[O-])c3)c(Oc3cccc4[nH]ccc34)c2)CC1 (stereo not drawn) [EXAMPLE 206, 4-{4-[1-(4′-chloro-1,1′-biphenyl-2-yl)ethyl]piperazin-1-yl}-2-(1H-indol-4-yloxy)-N-({4-[(1-methylpiperidin-4-yl)amino]-3-nitrophenyl}sulfonyl)benzamide] | >7916.4 |
| CN(C)C1(CNc2ccc(S(=O)(=O)NC(=O)c3ccc(N4CCN(CC5=C(c6ccc(Cl)cc6)CC(C)(C)CC5)CC4)cc3Oc3ccc4[nH]ccc4c3)cc2[N+](=O)[O-])CCOCC1 [EXAMPLE 207, 4-(4-{[2-(4-chlorophenyl)-4,4-dimethylcyclohex-1-en-1-yl]methyl}piperazin-1-yl)-N-{[4-({[4-(dimethylamino)tetrahydro-2H-pyran-4-yl]methyl}amino)-3-nitrophenyl]sulfonyl}-2-(1H-indol-5-yloxy)benzamide] | >3021.3 |
| CC1(C)CCC(CN2CCN(c3ccc(C(=O)NS(=O)(=O)c4ccc(NC5CCCCC5N)c([N+](=O)[O-])c4)c(Oc4ccc5[nH]ccc5c4)c3)CC2)=C(c2ccc(Cl)cc2)C1 (stereo not drawn) [EXAMPLE 208, N-({4-[(2-aminocyclohexyl)amino]-3-nitrophenyl}sulfonyl)-4-(4-{[2-(4-chlorophenyl)-4,4-dimethylcyclohex-1-en-1-yl]methyl}piperazin-1-yl)-2-(1H-indol-5-yloxy)benzamide] | >1120.6 |
| CN(C)CC#Cc1ccc(-c2ccc(Cl)cc2)c(CN2CCN(c3ccc(C(=O)NS(=O)(=O)c4ccc(NCC5CCOCC5)c([N+](=O)[O-])c4)c(Oc4cccc5[nH]ccc45)c3)CC2)c1 [EXAMPLE 209, 4-[4-({4′-chloro-4-[3-(dimethylamino)prop-1-ynyl]-1,1′-biphenyl-2-yl}methyl)piperazin-1-yl]-2-(1H-indol-4-yloxy)-N-({3-nitro-4-[(tetrahydro-2H-pyran-4-ylmethyl)amino]phenyl}sulfonyl)benzamide] | >2476.0 |
| CC1(C)CCC(CN2CCN(c3ccc(C(=O)NS(=O)(=O)c4ccc(NC5CCN(CCCC(F)(F)F)CC5)c([N+](=O)[O-])c4)c(Oc4cccc5[nH]ccc45)c3)CC2)=C(c2ccc(Cl)cc2)C1 [EXAMPLE 210, 4-(4-{[2-(4-chlorophenyl)-4,4-dimethylcyclohex-1-en-1-yl]methyl}piperazin-1-yl)-2-(1H-indol-4-yloxy)-N-[(3-nitro-4-{[1-(4,4,4-trifluorobutyl)piperidin-4-yl]amino}phenyl)sulfonyl]benzamide] | >1057.6 |
| CN1CCC(O)(CCNc2ccc(S(=O)(=O)NC(=O)c3ccc(N4CCN(CC5=C(c6ccc(Cl)cc6)CC(C)(C)CC5)CC4)cc3Oc3ccc4[nH]ccc4c3)cc2[N+](=O)[O-])CC1 [EXAMPLE 211, 4-(4-{[2-(4-chlorophenyl)-4,4-dimethylcyclohex-1-en-1-yl]methyl}piperazin-1-yl)-N-[(4-{[2-(4-hydroxy-1-methylpiperidin-4-yl)ethyl]amino}-3-nitrophenyl)sulfonyl]-2-(1H-indol-5-yloxy)benzamide] | 651.1 |
| CC1(C)CCC(CN2CCN(c3ccc(C(=O)NS(=O)(=O)c4ccc(NC5CCN(c6nccs6)CC5)c([N+](=O)[O-])c4)c(Oc4ccc5[nH]ccc5c4)c3)CC2)=C(c2ccc(Cl)cc2)C1 [EXAMPLE 212, 4-(4-{[2-(4-chlorophenyl)-4,4-dimethylcyclohex-1-en-1-yl]methyl}piperazin-1-yl)-2-(1H-indol-5-yloxy)-N-[(3-nitro-4-{[1-(1,3-thiazol-2-yl)piperidin-4-yl]amino}phenyl)sulfonyl]benzamide] | >895.1 |
| O=C(NS(=O)(=O)c1ccc(NCC2CCOCC2)c([N+](=O)[O-])c1)c1ccc(N2CCN(Cc3cc(OCCO)ccc3-c3ccc(Cl)cc3)CC2)cc1Oc1cccc2[nH]ccc12 [EXAMPLE 213, 4-(4-{[4′-chloro-4-(2-hydroxyethoxy)-1,1′-biphenyl-2-yl]methyl}piperazin-1-yl)-2-(1H-indol-4-yloxy)-N-({3-nitro-4-[(tetrahydro-2H-pyran-4-ylmethyl)amino]phenyl}sulfonyl)benzamide] | >66000 |
| CC1(C)CCC(CN2CCN(c3ccc(C(=O)NS(=O)(=O)c4ccc(NC5CCN(CC6CC6)CC5)c([N+](=O)[O-])c4)c(Oc4ccc5[nH]ccc5c4)c3)CC2)=C(c2ccc(Cl)cc2)C1 [EXAMPLE 214, 4-(4-{[2-(4-chlorophenyl)-4,4-dimethylcyclohex-1-en-1-yl]methyl}piperazin-1-yl)-N-[(4-{[1-(cyclopropylmethyl)piperidin-4-yl]amino}-3-nitrophenyl)sulfonyl]-2-(1H-indol-5-yloxy)benzamide] | 776.6 |
| CN1CCN(Nc2ccc(S(=O)(=O)NC(=O)c3ccc(N4CCN(CC5=C(c6ccc(Cl)cc6)CC(C)(C)CC5)CC4)cc3Oc3cccc4[nH]ccc34)cc2S(=O)(=O)C(F)(F)F)CC1 [EXAMPLE 215, 4-(4-{[2-(4-chlorophenyl)-4,4-dimethylcyclohex-1-en-1-yl]methyl}piperazin-1-yl)-2-(1H-indol-4-yloxy)-N-({4-[(4-methylpiperazin-1-yl)amino]-3-[(trifluoromethyl)sulfonyl]phenyl}sulfonyl)benzamide] | 120.8 |
| CC1(C)CCC(CN2CCN(c3ccc(C(=O)NS(=O)(=O)c4ccc(NC5CCN(CCCC(F)(F)F)CC5)c([N+](=O)[O-])c4)c(Oc4ccc5[nH]ccc5c4)c3)CC2)=C(c2ccc(Cl)cc2)C1 [EXAMPLE 216, 4-(4-{[2-(4-chlorophenyl)-4,4-dimethylcyclohex-1-en-1-yl]methyl}piperazin-1-yl)-2-(1H-indol-5-yloxy)-N-[(3-nitro-4-{[1-(4,4,4-trifluorobutyl)piperidin-4-yl]amino}phenyl)sulfonyl]benzamide] | >1073.2 |
| CC(c1ccccc1-c1ccc(Cl)cc1)N1CCN(c2ccc(C(=O)NS(=O)(=O)c3ccc(NN4CCN(C)CC4)c([N+](=O)[O-])c3)c(Oc3cccc4[nH]ccc34)c2)CC1 (stereo not drawn) [EXAMPLE 217, 4-{4-[1-(4′-chloro-1,1′-biphenyl-2-yl)ethyl]piperazin-1-yl}-2-(1H-indol-4-yloxy)-N-({4-[(4-methylpiperazin-1-yl)amino]-3-nitrophenyl}sulfonyl)benzamide] | 171.1 |
| CN1CCC(Nc2ccc(S(=O)(=O)NC(=O)c3ccc(N4CCN(CC5=C(c6ccc(Cl)cc6)CC(C)(C)CC5)C(CO)C4)cc3Oc3ccc4[nH]ccc4c3)cc2[N+](=O)[O-])CC1 (stereo not drawn) [EXAMPLE 218, 4-[4-{[2-(4-chlorophenyl)-4,4-dimethylcyclohex-1-en-1-yl]methyl}-3-(hydroxymethyl)piperazin-1-yl]-2-(1H-indol-5-yloxy)-N-({4-[(1-methylpiperidin-4-yl)amino]-3-nitrophenyl}sulfonyl)benzamide] | 738.2 |
| CC1(C)CCC(CN2CCN(c3ccc(C(=O)NS(=O)(=O)c4ccc(NC5CCN(C6CCOCC6)CC5)c([N+](=O)[O-])c4)c(Oc4ccc5[nH]ccc5c4)c3)CC2CO)=C(c2ccc(Cl)cc2)C1 (stereo not drawn) [EXAMPLE 219, 4-[4-{[2-(4-chlorophenyl)-4,4-dimethylcyclohex-1-en-1-yl]methyl}-3-(hydroxymethyl)piperazin-1-yl]-2-(1H-indol-5-yloxy)-N-({3-nitro-4-[(1-tetrahydro-2H-pyran-4-ylpiperidin-4-yl)amino]phenyl}sulfonyl)benzamide] | 126.8 |
